Consider five compounds from article PMC6063448, “Antimicrobial activity of linear lipopeptides derived from BP100 towards plant pathogens” (PLoS ONE, 2018).

SMILES strings stand for the structures.

The MIC is the smallest concentration in the dilution series that meets the test's criterion for growth inhibition.

The subject of assay [1] is Fusarium oxysporum f. sp. lycopersici FOL 3 race 2. Kind of assay: MIC, antifungal growth inhibition in microtiter plates (PDB). As to conditions: Fo, 22°C, seven days, OD 600 nm, lowest concentration with no growth, given as interval of tested concentrations, three replicates, experiment repeated twice. Format: cell-based. How it is done:
(§1) The following plant pathogenic fungal strains were used: Penicillium expansum EPS26 (Institut de Tecnologia Agroalimentària, Universitat de Girona, Spain) and Fusarium oxysporum f. sp. lycopersici FOL 3 race 2 (ATCC 201829, American Type Culture Collection,Virginia, EEUU). Strains were cultured on potato dextrose agar (PDA) plates (Difco). Conidia from P. expansum and microconidia from F. oxysporum were obtained from 5–7 day-old agar Potato Dextrose (PDA) cultures after growth at 25°C. Inoculum was prepared by scraping spore material from culture surfaces with a cotton swab and resuspending it in distilled water containing 0.5‰ of tween 80. The suspensions were filtered through Miracloth (Merk, Millipore) and the concentration of conidia was determined using a hemacytometer and adjusted to 10^4 conidia mL^-1 for F. oxysporum and to 10^3 conidia mL^-1 for P. expansum.
(§2) Lyophilized peptides were solubilized in sterile Milli-Q water to a final concentration of 1 mM and filter sterilized through a 0.22-μm pore filter. […] For antibacterial activity 20 μL of each dilution were mixed in a microtiter plate well with 20 μL of the corresponding suspension of the bacterial indicator, 160 μL of Trypticase Soy Broth (TSB) (BioMèrieux, France) to a total volume of 200 μL. For antifungal activity 20 μL of each stock solution were mixed in a microtiter plate well with 80 μL of the corresponding suspension of the fungal pathogen and 100 μL of double concentrated Potato Dextrose Broth (PDB) to a total volume of 200 μL containing 0.003% w/v of chloramphenicol to prevent bacterial contamination.
(§3) Three replicates for each combination of strain, compound and concentration were used. Microbial growth was determined by optical density measurement at 600 nm (Bioscreen C, Labsystem, Helsinki, Finland). For antibacterial activity microplates were incubated at 25°C with 20 s shaking before hourly absorbance measurement for 48 h. For antifungal activity microplates were incubated at 22°C with 1 min shaking before absorbance measurement that were done every two hours during seven days. The experiment was repeated twice. The MIC was taken as the lowest compound concentration with no growth at the end of the experiment.

The subject of assay [2] is Penicillium expansum EPS26. Described as above. Format: cell-based. To be noted: Pe, 22°C, seven days, OD 600 nm, lowest concentration with no growth, given as interval of tested concentrations, three replicates, experiment repeated twice. How it is done: as §1, §2, §3
The subject of assay [3] is Xanthomonas axonopodis pv. vesicatoria 2133–2. Kind of assay: MIC, growth inhibition in microtiter plates (TSB). As to conditions: Xav, 25°C, 48 h, OD 600 nm, lowest concentration with no growth, given as interval of tested concentrations, three replicates, experiment repeated twice. Format: cell-based.
Source text: (§4) The following plant pathogenic bacterial strains were used: Erwinia amylovora PMV6076 (Institut National de la Recherche Agronomique, Angers, France), Pseudomonas syringae pv. syringae EPS94 (Institut de Tecnologia Agroalimentària, Universitat de Girona, Spain), Xanthomonas axonopodis pv. vesicatoria 2133–2, Pseudomonas syringae pv. actinidiae Psa3700.1.1, Xanthomonas fragariae Xf349-9A (Instituto Valenciano de Investigaciones Agrarias, Valencia, Spain), and Xanthomonas arboricola pv. pruni CFBP5563 (Collection Française de Bactéries associées aux Plantes, Angers, France). All bacteria except for X. fragariae were stored in Luria Bertani (LB) broth supplemented with glycerol (20%) and maintained at -80°C. For X. fragariae, Medium B [46] was used instead of LB. E. amylovora, X. arboricola pv. pruni, P. syringae pv. syringae and P. syringae pv. actinidiae were scrapped from the agar media after growing for 24 h at 25°C, and X. axonopodis pv. vesicatoria and X. fragariae after growing for 48 h at 25°C. The cell material was suspended in sterile water to obtain a suspension of 10^8 CFU mL^-1.
as §2, §3

Assay [4] deals with Erwinia amylovora PMV6076. In words: MIC, growth inhibition in microtiter plates (TSB). Format: cell-based. As to conditions: Ea, 25°C, 48 h, OD 600 nm, lowest concentration with no growth, given as interval of tested concentrations, three replicates, experiment repeated twice.
Source text: as §4, §2, §3

Assay [5] has as its system Pseudomonas syringae pv. actinidiae Psa3700.1.1. Kind of assay: MIC, growth inhibition in microtiter plates (TSB). Type of assay: cell-based. As to conditions: Psa, 25°C, 48 h, OD 600 nm, lowest concentration with no growth, given as interval of tested concentrations, three replicates, experiment repeated twice.
Source text: as §4, §2, §3

Assay [6] deals with Pseudomonas syringae pv. syringae EPS94. Kind of assay: MIC, growth inhibition in microtiter plates (TSB). Format: cell-based. To be noted: Pss, 25°C, 48 h, OD 600 nm, lowest concentration with no growth, given as interval of tested concentrations, three replicates, experiment repeated twice.
Source text: as §4, §2, §3

For assay [7], the system named is Xanthomonas arboricola pv. pruni CFBP5563. Kind of assay: MIC, growth inhibition in microtiter plates (TSB). As to conditions: Xap, 25°C, 48 h, OD 600 nm, lowest concentration with no growth, given as interval of tested concentrations, three replicates, experiment repeated twice. Format: cell-based.
Source text: as §4, §2, §3

Assay [8] has as its system Xanthomonas fragariae Xf349-9A. Kind of assay: MIC, growth inhibition in microtiter plates (TSB). To be noted: Xf, 25°C, 48 h, OD 600 nm, lowest concentration with no growth, given as interval of tested concentrations, three replicates, experiment repeated twice. Format: cell-based.
Source text: as §4, §2, §3

Assay [9] relates to defense-related genes in tomato plants. In words: Induction of defense gene expression of tomato plants (RT-qPCR). Format: in vivo, tomato cv. Rio Grande. As to conditions: tomato leaves sprayed, 24 h; peptides and flg15 125 μM, JA 2.5 mM, ASM 300 mg/L; ΔΔCt relative to actin; above 2 = overexpression. The method, then:
Seeds of tomato cv. Rio Grande plants were sown in hydroponic seed plugs (rockwool), germinated and grown under controlled greenhouse conditions (25 ± 2°C, 16 h light / 15 ± 2°C, 8 h dark, and 60% RH). Two-week old seedlings (two cotyledons) were transplanted into rockwool plugs (7.5×7.5×6.5 cm, Grodan Iberica). The experimental design consisted of three replicates of three plants per treatment. After two weeks, tomato leaves were sprayed with aqueous solutions of BP100, 9 selected derivatives and flg15 at 125 μM, jasmonic acid at 2.5 mM (Sigma-Aldrich, Sant Louis, Missouri, UE), and acybenzolar-S-methyl at 300 mg/L (Syngenta, Basel, Switzerland), until the run-off point. Water-sprayed plants were used as not treated controls. Twenty-four hours after product application leaf samples were collected and processed to extract RNA for RT-qPCR assays. Plant material was ground to a fine powder in liquid nitrogen with the Tissuelyzer II system (Qiagen). Total RNA was extracted from leaves using PureLink Plant RNA Reagent (Invitrogen, Life Technologies) according to the manufacturer’s manual. The RNA was solubilized in RNAse free water and was routinely subjected to DNAse treatment (Ambion® Turbo DNA-free™, Life Technologies) to remove any contaminant DNA. In each step, the RNA was quantified using a Nanodrop N-2000 spectrophotometer, and its integrity verified by denaturing agarose gel electrophoresis. First-strand of complementary DNA (cDNA) was generated from leave RNA using reverse transcriptase (High Capacity cDNA Reverse Transcription Kit, Invitrogen) according to the manufacturer’s manual.
To test gene defense induction in the treated tomato plants, a qPCR assay was performed. Quantitative PCR was carried out in a fluorometric thermal cycler (qPCR Quant Studio 5, Applied Biosystems) by using a Mix SYBR®Green PCR Master Mix (Applied Biosystems). The total reaction volume of this PCR reaction was 20 μL and the reaction mixture was 1 μL of each primer set at the adequate concentration, 10 μL of MixSyber Green, 6 μL of distilled water and 2 μL of cDNA. Melting curve analysis was performed after amplification to verify amplification specificity. A constitutive gene (actin gene) was used as reference control, and the following genes implicated in plant defense response were analyzed: Pathogenesis-related protein-1 (PR1), Harpin (Harp), Polyphenol oxidase (PPO), Subtilisin-like protease (Sub1), Blue copper binding-protein (BCB), Osmotin (Osm2), Acidic β-1,3 endoglucanase (GluA), Lypoxigenase (LOX), Protein inhibitor II (PinII), Dehydrin (Tas14) and Ethylene response transcription factor (ERT3). […] For each gene system, the concentration of the primer pair was optimized. The primer concentration was 100 nM for all the genes except for the GluA, Harp, PR1 and actin genes which optimized concentration was 300 nM. A calibration curve was prepared by cloning the corresponding DNA in the pSpark cloning vector (Canvax, Córdoba, Spain) according to the manufacturer instructions, which was then used to transform E. coli DH5α by standard procedures. The number of plasmid copies were quantified after purification from E. coli (QIAGEN Iberia, S. L., Madrid, Spain), and appropriate dilutions were prepared to obtain the standard curve. […] Relative quantification of gene expression was done using the ΔΔCt method. Each biological repetition treatment was analyzed in duplicate. The mean of the Ct values obtained were used to estimate the fold change value of the endogenous reference gene (actin) and the target plant defense genes.
(In general: In qPCR the cycle at which signal appears reflects the starting amount.)

Take `CCCCCC(=O)N[C@@H](CCCCN)C(=O)N[C@@H](CCCCN)C(=O)N[C@@H](CC(C)C)C(=O)N[C@@H](Cc1ccccc1)C(=O)N[C@@H](CCCCN)C(=O)N[C@@H](CCCCN)C(=O)N[C@H](C(=O)N[C@@H](CC(C)C)C(=O)N[C@@H](CCCCN)C(=O)N[C@@H](Cc1ccc(O)cc1)C(=O)N[C@@H](CC(C)C)C(N)=O)[C@@H](C)CC` [BP367, C5H11CO-KKLFKKILKYL-NH2]: the MIC in assay [1] lay within 1.6 to 3.1 µM; in [2] it was 12.5 to 25 µM; in [3] it was 3.1 to 6.2 µM; in assay [4], 3.1 to 6.2 µM; in [5], 3.1 to 6.2 µM; in assay [6], 3.1 to 6.2 µM. Further, the MIC in assay [7] and in assay [8] was 3.1 to 6.2 µM each time.
On to `CCCCCC(=O)NCCCC[C@H](NC(=O)[C@@H](NC(=O)[C@H](CCCCN)NC(=O)[C@H](CCCCN)NC(=O)[C@H](Cc1ccccc1)NC(=O)[C@H](CC(C)C)NC(=O)[C@H](CCCCN)NC(=O)[C@H](CCCCN)NC(C)=O)[C@@H](C)CC)C(=O)N[C@@H](CCCCN)C(=O)N[C@@H](Cc1ccc(O)cc1)C(=O)N[C@@H](CC(C)C)C(N)=O` [BP375, Ac-KKLFKKIK(COC5H11)KYL-NH2], for which the MIC in [1] was 0.4 to 0.8 µM; in assay [2], 3.1 to 6.2 µM; in [3], 6.2 to 12.5 µM; in [4], 3.1 to 6.2 µM; in assay [5], 3.1 to 6.2 µM; in assay [6], 3.1 to 6.2 µM. Further, the MIC in assay [7] and in assay [8] was 3.1 to 6.2 µM each time.
As to `CC/C=C\C[C@H]1C(=O)CC[C@@H]1CC(=O)O` [JA, jasmonic acid, reference compound], in assay [9], the “BCB gene expression, fold induction” value worked out at 6.6; the “ERT3 gene expression, fold induction” value is on record as 41.3; the “GluA gene expression, fold induction” value came out at 0.2; the “Harp gene expression, fold induction” value is 1.9. In [9], the “LOX gene expression, fold induction” value was found to be 9.7; the “Osm2 gene expression, fold induction” value is listed as 48.4; the “PPO gene expression, fold induction” value is on record as over 50; the “PR1 gene expression, fold induction” value turned out to be 2.9. In assay [9], the “PinII gene expression, fold induction” value was over 50; the “Sub1 gene expression, fold induction” value stood at 3.9; the “Tas14 gene expression, fold induction” value is recorded as 0.88.
`CSC(=O)c1cccc2nnsc12` [ASM, acybenzolar-S-methyl, reference compound]: in assay [9], the “BCB gene expression, fold induction” value turned out to be 12.1; the “ERT3 gene expression, fold induction” value is reported as 2.9; the “GluA gene expression, fold induction” value is recorded as 5.9; the “Harp gene expression, fold induction” value is recorded as 6.3. In assay [9], the “LOX gene expression, fold induction” value stood at 3.3; the “Osm2 gene expression, fold induction” value is 8.7; the “PPO gene expression, fold induction” value was found to be 2.9; the “PR1 gene expression, fold induction” value was determined as 4.8. In [9], the “PinII gene expression, fold induction” value was 0.5; the “Sub1 gene expression, fold induction” value is listed as 11.6; the “Tas14 gene expression, fold induction” value was 10.7.
For the compound `CCCC(=O)NCCCC[C@H](NC(=O)[C@H](CCCCN)NC(=O)[C@H](CCCCN)NC(=O)[C@H](Cc1ccccc1)NC(=O)[C@H](CC(C)C)NC(=O)[C@H](CCCCN)NC(=O)[C@H](CCCCN)NC(C)=O)C(=O)N[C@@H](CC(C)C)C(=O)N[C@@H](CCCCN)C(=O)N[C@@H](Cc1ccc(O)cc1)C(=O)N[C@@H](CC(C)C)C(N)=O` [BP386, Ac-KKLFKKK(COC3H7)LKYL-NH2], the MIC is 12.5 to 25 µM in [1]; over 25 µM in assay [2]; 12.5 to 25 µM in assay [3]; 12.5 to 25 µM in assay [4]; 6.2 to 12.5 µM in assay [5]; 12.5 to 25 µM in assay [7]. Also, the MIC in assay [8] lay in the range of 12.5 to 25 µM.
